This series can be described thus: Stability of the isolated free acid on standing at room temperature. Format: physicochemical. As to conditions: isolated free acid (oil). On the procedure: To a solution of o-phosphonooxymethylpropofol dibenzyl ester (115 mg, 0.245 mmol) in methanol (10 mL) was added palladium on carbon (10%, 20 mg). This mixture was stirred under an atmosphere of hydrogen (1 atm) for 1.5 hour.
To a solution of O-phosphonooxymethyl-alpha-tocopherol dibenzyl ester (88 mg, 0.12 mmol) in tetrahydrofuran (10 mL) was added palladium on carbon (10%, 15 mg). The mixture was stirred under an atmosphere of hydrogen (1 atm) for 10 minutes (the reaction was complete after 5 minutes as judged by TLC). The catalyst was removed by filtration through Celite, the filtrate was evaporated at reduced pressure, and then dried in vacuo.

For the compound `Cc1c(C)c2c(c(C)c1OCOP(=O)(O)O)CCC(C)(CCCC(C)CCCC(C)CCCC(C)C)O2` (stereo not drawn) [IIb, O-phosphonooxymethyl-alpha-tocopherol], the “stability at room temperature” value is “unstable at room temperature”.

Turning to `CC(C)c1cccc(C(C)C)c1OCOP(=O)(O)O` [Id, O-phosphonooxymethylpropofol], the “stability at room temperature” value is “unstable on standing at room temperature”.

Source of the values: patent US7244718B2, “Water soluble prodrugs of hindered alcohols” (University of Kansas, priority 1998, dated 2007).
